The values below come from patent US3952108A, “Scopolamine derivatives for treating ulcers and spasms” (Istituto de Angeli S.p.A., priority 1972, dated 1976).

Test [1] in a line: Overall evaluation of the spasmolytic and anti-ulcer tests. As to conditions: versus scopolamine bromobutylate. An excerpt:
The properties of the new compounds may be illustrated by the results of the following experiments.
(§1) The above experiments have been carried out in comparison with scopolamine bromobutylate as a reference. The results are shown in the following table and are expressed on the basis of the activity of scopolamine bromobutylate being equal to 1.

For test [2], the system named is gastric secretion in rats. The test is described as follows: Action on gastric secretion in rats after intraduodenal administration. The class given is in vivo, rat. As to conditions: 40 mg/Kg i.d., activity of scopolamine bromobutylate equal to 1.
Source text: Action on gastric secretion in rats after intraduodenal administration according to Birnbaum G., Medicina Psicosomatica, 13, 1-4 (1968).
as §1

In test [3] the test system is rabbit choledochoduodenal junction. The test can be described thus: Spasmolytic activity "in vivo" on rabbit choledochoduodenal junction stimulated by neostigmine. As to conditions: 10 mcg/Kg i.v.; neostigmine 60 mcg/Kg i.v.; activity of scopolamine bromobutylate equal to 1.
Source text: Spasmolytic activity "in vivo" on rabbit choledochoduodenal junction stimulated by neostigmine (60 mcg/Kg i.v.), after i.v. administration of the compound under examination, according to Luoma P., Acta Pharmacol. e Toxicol., 29, suppl. 1, 5-55 (1971).
as §1

The next test has as its system Shay ulcer in rats. The test can be described thus: Action on Shay ulcer in rats by intraduodenal route. It counts as in vivo, rat. As to conditions: 100 mg/Kg i.d., activity of scopolamine bromobutylate equal to 1.
Source text: Action on Shay ulcer in rats by intraduodenal route according to Shay H., Komarov S. A., Fels S. S., Meranze D., Gruenstein M. and Siplet H., Gastroenterology, 5, 43-61 (1945).
as §1

Molecules are shown by their SMILES.

Turning to `C[N+]1(CC2CC2)[C@@H]2C[C@H](OC(=O)[C@H](CO)c3ccccc3)C[C@H]1[C@@H]1O[C@@H]12` (stereo partly drawn) [DA-3177, scopolamine-N-(cyclopropyl-methyl)-bromide], the “Activity compared with the reference compound, taking into account the relevant toxicities” value in test [1] was “higher activities than the reference compound”. Also, the “inhibition % of the gastric juice, relative to scopolamine bromobutylate = 1” value in test [2] amounted to 1. Moreover, the “% increase of flux, relative to scopolamine bromobutylate = 1” value in test [3] is reported as 0.9. Also, in the test on Shay ulcer in rats, the “% of animals protected from ulcer, relative to scopolamine bromobutylate = 1” value stood at 1.5.

As to `CC1CC1C[N+]1(C)[C@@H]2C[C@H](OC(=O)[C@H](CO)c3ccccc3)C[C@H]1[C@@H]1O[C@@H]12` (stereo partly drawn) [DA-3235, Scopolamine-N-(2-methyl-cyclopropyl-methyl)-bromide], the “Activity compared with the reference compound, taking into account the relevant toxicities” value in test [1] is recorded as “higher activities than the reference compound”. Also, the “inhibition % of the gastric juice, relative to scopolamine bromobutylate = 1” value in test [2] worked out at 0.8. Also, the “% increase of flux, relative to scopolamine bromobutylate = 1” value in test [3] is given as 0.8. Also, in the test with Shay ulcer in rats, the “% of animals protected from ulcer, relative to scopolamine bromobutylate = 1” value is 2.

Turning to `C[N+]1(CCC2CC2)[C@@H]2C[C@H](OC(=O)[C@H](CO)c3ccccc3)C[C@H]1[C@@H]1O[C@@H]12` (stereo partly drawn) [DA-3236, scopolamine-N-(cyclopropyl-ethyl)-bromide], the “inhibition % of the gastric juice, relative to scopolamine bromobutylate = 1” value in test [2] was 1.1. Moreover, the “% increase of flux, relative to scopolamine bromobutylate = 1” value in test [3] is 0.9. Besides, the “% of animals protected from ulcer, relative to scopolamine bromobutylate = 1” value with Shay ulcer in rats stood at 2.

Consider `C[N+]1(CC2CCC2)[C@@H]2C[C@H](OC(=O)[C@H](CO)c3ccccc3)C[C@H]1[C@@H]1O[C@@H]12` (stereo partly drawn) [DA-3237, Scopolamine-N-(cyclobutyl-methyl)-bromide], for which the “Activity compared with the reference compound, taking into account the relevant toxicities” value in test [1] was “higher activities than the reference compound”. The “inhibition % of the gastric juice, relative to scopolamine bromobutylate = 1” value in test [2] was determined as 1.2. The “% increase of flux, relative to scopolamine bromobutylate = 1” value in test [3] was found to be 1.2. Also, the “% of animals protected from ulcer, relative to scopolamine bromobutylate = 1” value in the test on Shay ulcer in rats was determined as 2.

Regarding `C[N+]1(CC2CO2)[C@@H]2C[C@H](OC(=O)[C@H](CO)c3ccccc3)C[C@H]1[C@@H]1O[C@@H]12` (stereo partly drawn) [DA-3245, scopolamine-N-(2,3-epoxypropyl)-bromide], the “inhibition % of the gastric juice, relative to scopolamine bromobutylate = 1” value in test [2] was 1.4. Moreover, in test [3], the “% increase of flux, relative to scopolamine bromobutylate = 1” value is 0.4. For the same compound, in the test with Shay ulcer in rats, the “% of animals protected from ulcer, relative to scopolamine bromobutylate = 1” value is recorded as 1.5.

Turning to `CCCC[N+]1(C)[C@@H]2C[C@@H](OC(=O)[C@H](CO)c3ccccc3)C[C@H]1[C@@H]1O[C@@H]12` (stereo partly drawn) [Scopolamine bromobutylate, scopolamine bromobutylate, reference compound], the “inhibition % of the gastric juice, relative to scopolamine bromobutylate = 1” value in test [2] worked out at 1. For the same compound, the “% increase of flux, relative to scopolamine bromobutylate = 1” value in test [3] was determined as 1. Moreover, the “% of animals protected from ulcer, relative to scopolamine bromobutylate = 1” value in the test on Shay ulcer in rats was 1.
